# Assay results published in US20210386668A1, “Cyclodextrin for use in the treatment and prevention of late phase bronchoconstriction in allergen-induced asthma” (Universite de Liege, priority 2020, published 2021).
# System: mild to moderate asthmatic patients sensitized to HDM
# Assay: Phase 2a proof of concept clinical trial, HDM allergen challenge (FEV1)
# Type: in vivo, human
# Source text: Seventeen mild to moderate asthmatics sensitized to HDM were included in a double blind crossover study comprising allergen challenges with HDM. […] These experiments show a significant effect of HPBCD inhalation on the prevention of allergen-induced FEV1 decrease during the late phase.
# Clinical trial protocols have been approved by an independent ethical committee (CHU Liege—University of Liege) in accordance with GCPs, Declaration of Helsinki and European regulations (EudraCT). All participants gave written informed consent before any study-specific procedure. For the phase 1 clinical trial, 8 healthy subjects (4 women and 4 men) from 18 to 40 years were recruited and enrolled in the study at the University Hospital of Liege (Belgium). Patients were randomized and received first the placebo (NaCl 0.9%) or HPBCD at 2.5 mM and 8 days after, the opposite treatment. After 1 week, all patients received HPBCD at 15 mM. One month later, all patients received HPBCD at 15 mM during 5 consecutive days. Apyrogenic and sterile HPBCD powder was diluted with NaCl 0.9% before inhalation (8 ml) with an ultrasonic nebulizer (Devilbiss 2000). General symptoms, asthma scores (ACQ), dyspnea, chest Rx, clinical biology, ECG, vital signs, spirometry, NO, sputum (induced by NaCl 4.5%) were analyzed after treatment periods. The second clinical trial (phase 2a-proof of concept) was a double-blinded, cross-over, placebo-controlled study. 17 mild to moderate asthmatic patients were included in the study at two different sites (University Hospital of Liege and University Hospital Erasme) in Belgium. Characterization visits consisted of dyspnea symptoms recording, ECG, chest Rx, clinical biology, spirometry and vital signs analysis. PD20 (provocative dose that causes a 20% fall in FEV1 from the saline alone value) to inhaled allergen was determined. […] The PD20 of the allergen was calculated from a cumulative dose-response curve, as described previously, Cataldo et al., Matrix metalloproteinase-9, but not tissue inhibitor of matrix metalloproteinase-1, increases in the sputum from allergic asthmatic patients after allergen challenge, Chest. 2002; 122(5):1553-9. All […] received a cumulative concentration of Dermatophagoides pteronyssinus with a reactivity index of 6. After 14 days wash-out period, patients were randomly divided into two groups and received either HPBCD 15 mM or Placebo (NaCl 0.9%) by inhalation (ultrasonic nebulizer (Devilbiss 2000)) twice daily. At the end of this treatment period, lung function (FEV1) was analyzed after allergen (HDM) challenge under the supervision of experienced respiratory clinical physiologists. FEV1 was measured after allergen inhalation challenge at 5, 15, 30, 60, 120, 180, 240, 300 and 360 min. After 28 days wash-out period, patients received the opposite treatment for another 14 days and the FEV1 following allergen challenge was evaluated. All clinical parameters were examined after each treatment period. The endpoint of this proof of concept study was changes in FEV1 over 0-360 min post-allergen challenges. FEV1 in early phase (0-60 min) and late phase (180-360 min) were expressed as: area under the FEV1-versus-time curve (AUC), maximum percentage fall and average percentage fall (calculated by dividing the area under the curve of the percentage fall in FEV1 by the duration of the response period). One patient who received placebo had negative maximum FEV1 decrease and negative average percentage fall in FEV1. These negative values were truncated to 0. Patients had access to […] (salbutamol 100 μg) throughout the study as an «as needed» treatment. […]
compound,measurement,setting,value
"CC(O)COC[C@H]1O[C@@H]2O[C@H]3[C@H](O)[C@@H](O)[C@@H](O[C@H]4[C@H](O)[C@@H](O)[C@@H](O[C@H]5[C@H](O)[C@@H](O)[C@@H](O[C@H]6[C@H](O)[C@@H](O)[C@@H](O[C@H]7[C@H](O)[C@@H](O)[C@@H](O[C@H]8[C@H](O)[C@@H](O)[C@@H](O[C@H]1[C@H](O)[C@H]2O)O[C@@H]8COCC(C)O)O[C@@H]7COCC(C)O)O[C@@H]6COCC(C)O)O[C@@H]5COCC(C)O)O[C@@H]4COCC(C)O)O[C@@H]3COCC(C)O (stereo partly drawn) [HPBCD, 2-hydroxypropyl-beta-cyclodextrin]",decrease in FEV1 after HDM challenge (AUC 0-360 min),"HPBCD 15 mM inhalation twice daily vs placebo, FIG. 5B",lower decrease in FEV1
same,maximum FEV1 decrease after HDM challenge,"HPBCD 15 mM vs placebo, FIG. 5D",significantly lower
same,average percentage FEV1 decrease after HDM challenge,"HPBCD 15 mM vs placebo, FIG. 5E",significantly lower
same,"hematology, serum biochemistry, urinalysis, vital signs, ECG tests and chest X-ray",between treatment groups,No significant changes
same,FEV1 decrease during the early bronchoconstriction phase,"early phase 0-60 min, HPBCD vs placebo",No significant differences
same,prevention of FEV1 decrease during the late phase reaction (AUC),"late phase 180-360 min, HPBCD 15 mM vs placebo, FIG. 5C",predominant effect
